The values that follow come from patent publication EP0896002A1, “CHIMERIC PROTEINS, HETERODIMER COMPLEXES THEREOF AND SUBSTITUTE FOR PLATELET” (TORAY INDUSTRIES, INC., priority 1997, dated 1998).

The target of this experiment is T1, α4·IgG heavy chain-β1·IgG heavy chain chimeric protein heterodimer complex (integrin α4β1; sequence Nos. 1 and 2) (Homo sapiens, UniProt P05556+P13612).
T1 construct: made in house; culture supernatant used in the assay
The experiment can be described thus: Inhibition of the binding of the α4·IgG heavy chain-β1·IgG heavy chain chimeric protein heterodimer complex to solid-phase CS-1-IgG (peptide fragment of fibronectin), ELISA-type detection at 490 nm. The following applies: for inhibition at 50 µg/mL / inhibition at 100 µg/mL: read-out: Inhibition rate (%); for IC50: binding assay system of Example 9: binding to CS-1-IgG, cyclic phage-library peptides, read-out: Inhibitory activity IC50; for inhibition at 100 µg/mL: compound concentration 100 μg/ml. The procedure: At first, according to the said report (Humphries, M. J. et al., J. Biol. Chem., 262, 6886-6892 (1987)), the peptide fragment of sequence No. 3 (CS-1 peptide) was bound to rabbit IgG (Sigma), to prepare CS-1-IgG. The CS-1-IgG was diluted by PBS(-), and put in a 96-well immunoplate (NUNC) by 100 µl/well, and allowed to stand at 4°C for 16 hours, to be formed as a solid phase on the plate.
After completion of standing, the surface of the plate was washed with PBS(-) twice and treated with denatured 1% BSA(heat-natured at 80°C for 10 minutes)-PBS solution ( 300 µl/well) at 4°C for 3 hours to block the nonspecific reaction. Then, the solid phase CS-1-IgG and the CHO culture supernatant (100 µl) containing α4·IgG heavy chain-β1·IgG heavy chain chimeric protein heterodimer complex were reacted with each other at 30°C for 3 hours. The non-bound α4·IgG heavy chain-β1·IgG heavy chain chimeric protein heterodimer complex was removed by washing with 0.1% BSA-containing TBS buffer (150 mM NaCl, 25 mM Tris-HCl, 1 mM MnCl2, pH 7.4) twice, and the bound α4·IgG heavy chain-β1·IgG heavy chain chimeric protein heterodimer complex was detected by biotin labeled anti-human IgG antibody (Vector) as the primary antibody and avidin labeled horseradish peroxidase (Sigma) as the secondary antibody. The surface of the plate was washed with the TBS buffer. Orthophenylenediamine was added as a substrate to it for color development, and the absorbance at 490 nm were measured.
The all peptides were synthesized by a peptide synthesizer. The peptide and 100 µl of CHO cultured supernatant solution containing αα4·IgG heavy chain-β1·IgG heavy chain chimeric protein heterodimer complex were mixed at room temperature for 20 minutes, and the binding to CS-1-IgG was determined according to the method in Example 9.
At first, α4·IgG heavy chain-β1·IgG heavy chain chimeric protein heterodimer complex purified in Example 6, or human IgG was prepared at a proper concentration by PBS (-) and was coated on a plastic plate at 4°C for 16 hours, being formed as a solid phase on a plastic plate. Then, according to a report (Cott, J. K. and Smoth, G. P., Science, 249, 386-390 (1990)), a phage peptide library in which a random six amino acid residues were cyclyzed by the disulfide bond of cysteine at both the ends was prepared and suspended in 0.1% BSA-containing TBS buffer. The phage peptide library was reacted with human IgG at 30°C for 3 hours, to absorb phage peptides capable of being bound to IgG. Then, the non-absorbed phases were reacted with α4·IgG heavy chain-β1·IgG heavy chain chimeric protein heterodimer complex at 30°C for 3 hours, and the reaction mixture was washed with 0.1% BSA-containing TBS buffer twice to remove the phage peptides incapable of being bound to the heterodimer complex. Only the phage peptides capable of being bound were collected after elution with 0.1M glycine-hydrochloric acid (pH 2.2). After collection, the phage was amplified and the above mentioned binding operation was repeated further twice. The only the phage peptides capable of being bound to the heterodimer complex were selectively concentrated. In the final elution operation, phage peptides capable of being bound to the heterodimer complex were eluted using 10 mM EDTA and 0.1M glycine-hydrochloric acid in two steps, and the amino acid sequences of the respective peptides were analyzed. Furthermore, they were examined using the binding assay system of Example 9, and the IC50 values of the four peptide sequences showing binding inhibitory activity are shown in Table 1.
Reagents and reported compounds were picked up at random, adjusted to a final concentration of 50 or 100 µg/ml, and added to the binding determination system in Example 9. Compounds showing inhibitory activity were obtained. […]

Setting [1] is: binding determination system of Example 9 (CS-1-IgG).

Like-named read-outs stand apart in the source and are kept apart here.

T1 sequence (P13612 35-977 limits assumed, change not shown): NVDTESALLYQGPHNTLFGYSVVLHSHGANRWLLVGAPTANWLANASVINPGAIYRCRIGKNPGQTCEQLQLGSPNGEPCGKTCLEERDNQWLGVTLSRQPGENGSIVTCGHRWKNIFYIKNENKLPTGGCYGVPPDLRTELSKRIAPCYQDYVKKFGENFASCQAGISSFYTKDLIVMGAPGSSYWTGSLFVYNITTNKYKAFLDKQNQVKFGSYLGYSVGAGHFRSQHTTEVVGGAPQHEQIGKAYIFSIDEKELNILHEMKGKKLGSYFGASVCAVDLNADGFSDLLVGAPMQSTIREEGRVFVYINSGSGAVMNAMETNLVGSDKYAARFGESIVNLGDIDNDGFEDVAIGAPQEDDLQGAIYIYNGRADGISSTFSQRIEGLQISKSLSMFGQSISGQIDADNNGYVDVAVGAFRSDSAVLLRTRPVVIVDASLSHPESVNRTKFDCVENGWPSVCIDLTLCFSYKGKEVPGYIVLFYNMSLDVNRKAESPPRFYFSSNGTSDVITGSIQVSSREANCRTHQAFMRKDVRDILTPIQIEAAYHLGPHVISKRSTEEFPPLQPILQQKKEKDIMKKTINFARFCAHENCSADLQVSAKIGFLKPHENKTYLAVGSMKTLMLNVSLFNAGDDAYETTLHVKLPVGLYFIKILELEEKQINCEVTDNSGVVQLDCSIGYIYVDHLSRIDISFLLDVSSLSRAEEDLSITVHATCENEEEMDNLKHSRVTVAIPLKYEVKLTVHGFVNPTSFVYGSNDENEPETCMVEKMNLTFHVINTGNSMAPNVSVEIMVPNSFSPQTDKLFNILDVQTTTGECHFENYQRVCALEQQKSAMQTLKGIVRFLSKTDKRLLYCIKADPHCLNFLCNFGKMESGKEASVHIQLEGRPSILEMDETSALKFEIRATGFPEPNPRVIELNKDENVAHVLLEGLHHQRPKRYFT
T1 sequence (P05556 21-728 limits assumed, change not shown): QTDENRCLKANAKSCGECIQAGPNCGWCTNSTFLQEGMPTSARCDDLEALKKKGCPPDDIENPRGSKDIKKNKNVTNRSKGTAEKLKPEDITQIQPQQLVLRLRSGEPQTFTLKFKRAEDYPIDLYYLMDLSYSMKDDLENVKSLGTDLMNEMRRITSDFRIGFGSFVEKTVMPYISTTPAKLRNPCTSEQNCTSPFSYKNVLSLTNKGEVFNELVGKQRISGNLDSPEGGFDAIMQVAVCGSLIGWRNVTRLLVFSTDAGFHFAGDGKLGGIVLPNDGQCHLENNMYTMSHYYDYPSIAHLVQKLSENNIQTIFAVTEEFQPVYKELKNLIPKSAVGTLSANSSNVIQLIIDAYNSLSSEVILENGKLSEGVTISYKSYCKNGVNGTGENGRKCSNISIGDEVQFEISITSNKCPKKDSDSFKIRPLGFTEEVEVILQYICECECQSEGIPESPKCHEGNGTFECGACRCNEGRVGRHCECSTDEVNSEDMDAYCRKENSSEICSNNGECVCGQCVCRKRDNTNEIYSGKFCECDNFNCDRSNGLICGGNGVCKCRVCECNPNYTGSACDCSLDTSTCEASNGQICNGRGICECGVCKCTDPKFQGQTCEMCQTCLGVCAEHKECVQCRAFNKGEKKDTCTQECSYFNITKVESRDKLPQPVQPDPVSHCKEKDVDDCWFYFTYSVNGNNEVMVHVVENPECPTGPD
T1 sequence (P01857 99-330 partner limits assumed): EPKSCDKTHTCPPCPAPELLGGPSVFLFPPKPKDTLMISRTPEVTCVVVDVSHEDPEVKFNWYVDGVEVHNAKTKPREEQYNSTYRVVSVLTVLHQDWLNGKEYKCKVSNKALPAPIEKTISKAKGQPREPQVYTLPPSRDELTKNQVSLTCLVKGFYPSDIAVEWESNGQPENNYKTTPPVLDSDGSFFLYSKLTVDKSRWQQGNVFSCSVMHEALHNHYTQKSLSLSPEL

Turning to `C#C[C@]1(O)CC[C@H]2[C@@H]3CCC4=C(CCC(=O)C4)[C@H]3CC[C@@]21C` [Norethynodrel], the inhibition at 50 µg/mL (compound concentration 50 μg/ml, binding determination system of Example 9 (CS-1-IgG)) was 28%. Consider `CC(C)(S)[C@@H](N)C(=O)O` [D-Penicillamine], for which the inhibition at 50 µg/mL came out at 51%.

Consider “Cys* Met Arg Tyr Thr Ser Ala Cys* (MRYTSAC; printed: Met Arg Tyr Thr Ser Ala Cys) [Sequence No. 25]”, for which the IC50 was 2300 nM.

For `O=C(O)CCCc1ccc2ccccc2c1` [γ-2-Naphtyl butyric acid, γ-2-Naphthyl butyric acid], the inhibition at 100 µg/mL under setting [1] was 37%.

With “Cys* Gly Leu Gln Ala Leu Pro Cys* (GLQALPC; printed: Gly Leu Gln Ala Leu Pro Cys) [Sequence No. 30]”, the IC50 worked out at 10000 nM. Same read-out and setting: next, “Cys* Ile Pro Glu Leu Ile Val Cys* (IPELIVC; printed: Ile Pro Glu Leu Ile Val Cys) [Sequence No. 24]”: 1200 nM; “Cys* Leu Arg Tyr Ser Val Pro Cys* (LRYSVPC; printed: Leu Arg Tyr Ser Val Pro Cys) [Sequence No. 28]”: 1800 nM. `O=C(O)CC12CC3CC(CC(C3)C1)C2` [1-Adamantaneacetic acid]: the inhibition at 100 µg/mL under setting [1] was found to be 65%.
